Measurements reported in PubChem BioAssay AID1963865 (Molecular Pharmacology Branch, DTP, NCI, 2024).

System: KRAS PDC multicell spheroid viability
Assay: Anticancer human tumor 825966-067-R-J1-PDC patient-derived colon carcinoma cell line growth inhibition [KRAS2]
Settings: for viability, T/C: stronger effect = lower value
Description: Multicellular complex tumor spheroid response to RAS pathway inhibitors in combination with a targeted agents in patient-derived cell lines with oncogenic KRAS variants from multiple cancer types
A high-throughput screen of multi-cell type tumor spheroids was designed to identify active combinations of targeted small molecules and KRAS pathway inhibitors. Complex spheroids include a stromal component modeled by human endothelial cells (HUVEC) and fibroblasts modeled by human mesenchymal stem cells (MSCs). The concentration ranges selected for each drug and investigational agent were based upon clinically achievable concentrations if the clinical Cmax of the agent was known.
Compounds. The drugs and investigational agents: BI-3406 (NSC825286), BAY-293 (NSC824723), batoprotafib (TNO155; NSC825523), sotorasib (AMG 510; NSC818433), MRTX1257 (NSC819558), elimusertib (BAY 1895344; NSC800525), molibresib (GSK525762; NSC774829), temuterkib (LY3214996; NSC803410), venetoclax (NSC766270), alisertib (NSC759677), olaparib (NSC753686), talazoparib (NSC767125), erdafitinib (NSC781556), ipatasertib (NSC767898), cabozantinib (NSC761068), nintedanib (NSC756659), abemaciclib (NSC768073), docetaxel (NSC628503), trametinib (NSC758246), and sapanisertib (NSC764658) were obtained from the National Cancer Institute (NCI) Developmental Therapeutics Program Chemical Repository. The FDA-approved anticancer drug set is available from the Developmental Therapeutics Program. […] The stock solutions were prepared in dimethyl sulfoxide (DMSO, Sigma-Aldrich, St. Louis, MO, cat. D2650) at 800-fold the tested concentration and stored at -70 degrees C prior to their use. All drugs and investigational agents were tested over a range starting from a high concentration at or near the clinical Cmax and decreasing in half-log increments. If the clinical Cmax for an agent had not been determined, the highest concentration tested was 10 microM.
Cell Culture. All cells were maintained in an incubator at 37 degrees C and 5% CO2 with 95% humidity. The PDC lines were cultured according to standard operating procedures established by the NCI PDMR (https://pdmr.cancer.gov/sops/default.htm). Briefly, all PDCs were thawed and cultured in Matrigel-coated flasks prepared with a working solution of 1X Ham's F-12 nutrient mix, without supplementation (Invitrogen, Waltham, MA, cat. 11765054), 100 U/mL penicillin-streptomycin (Invitrogen, cat. 15140122), and 2.5% Matrigel (Corning Inc., Corning, NY, cat. 354248) for the first three passages. All PDCs were cultured in complete DMEM/F-12 media containing advanced DMEM/F-12 (Invitrogen, cat. 12634028), 4.9% defined fetal bovine serum, heat inactivated (HyClone Laboratories Inc., Logan, UT, cat. SH30070.03HI), 389 ng/mL hydrocortisone (Sigma-Aldrich, cat. H4001), 9.7 ng/mL human EGF recombinant protein (Invitrogen, cat. PHG0313), 23.4 microg/mL adenine (Sigma-Aldrich, cat. A2786), 97.3 U/mL penicillin-streptomycin (Invitrogen, cat. 15140122), 1.9 mM L-glutamine (Invitrogen, cat. 25030081), and 9.7 microM Y-27632 dihydrochloride (Tocris Bioscience, Bristol, United Kingdom, cat. 1254). The PDCs were cultured in complete DMEM/F12 media without 9.7 microM Y-27632 dihydrochloride for at least two passages prior to the screen. The established cell line HOP-62 was cultured in RPMI 1640 medium, HEPES (Invitrogen, cat. 22400105) with 10% defined fetal bovine serum (HyClone Laboratories Inc., cat. SH30070.03) and 2 mM L-glutamine (Invitrogen, cat. 25030081). The pooled donor HUVEC were cultured in endothelial cell growth medium 2 (PromoCell, Heidelberg, Germany, cat. C-22011) and the hMSC were cultured in mesenchymal stem cell growth medium 2 (PromoCell, cat. C-28009). For all experiments, HUVEC and hMSC were used at passages </=5, while the malignant cell lines were used at passages </=15. […]

[1] = curve of first compound, second compound 0.1 µM
[2] = curve of first compound, second compound 0.316 µM
[3] = curve of first compound, second compound 1 µM
[4] = curve of first compound, second compound 3.16 µM
[5] = curve of first compound, second compound 10 µM
[6] = second compound 0.1 µM, first compound 0.01 µM
[7] = second compound 0.1 µM, first compound 0.0316 µM
[8] = second compound 0.1 µM, first compound 0.1 µM
[9] = second compound 0.1 µM, first compound 0.316 µM
[10] = second compound 0.1 µM, first compound 1 µM
[11] = second compound 0.1 µM, first compound 3.16 µM
[12] = second compound 0.316 µM, first compound 0.01 µM
[13] = second compound 0.316 µM, first compound 0.0316 µM
[14] = second compound 0.316 µM, first compound 0.1 µM
[15] = second compound 0.316 µM, first compound 0.316 µM
[16] = second compound 0.316 µM, first compound 1 µM
[17] = second compound 0.316 µM, first compound 3.16 µM
[18] = second compound 1 µM, first compound 0.01 µM
[19] = second compound 1 µM, first compound 0.0316 µM
[20] = second compound 1 µM, first compound 0.1 µM
[21] = second compound 1 µM, first compound 0.316 µM
[22] = second compound 1 µM, first compound 1 µM
[23] = second compound 1 µM, first compound 3.16 µM
[24] = second compound 3.16 µM, first compound 0.01 µM
[25] = second compound 3.16 µM, first compound 0.0316 µM
[26] = second compound 3.16 µM, first compound 0.1 µM
[27] = second compound 3.16 µM, first compound 0.316 µM
[28] = second compound 3.16 µM, first compound 1 µM
[29] = second compound 3.16 µM, first compound 3.16 µM
[30] = second compound 10 µM, first compound 0.01 µM
[31] = second compound 10 µM, first compound 0.0316 µM
[32] = second compound 10 µM, first compound 0.1 µM
[33] = second compound 10 µM, first compound 0.316 µM
[34] = second compound 10 µM, first compound 1 µM
[35] = second compound 10 µM, first compound 3.16 µM
[36] = second compound 0.1 µM, first compound 10 µM
[37] = second compound 0.316 µM, first compound 10 µM
[38] = second compound 1 µM, first compound 10 µM
[39] = second compound 3.16 µM, first compound 10 µM
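Further: spheroids exposed to compounds for 7 days.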
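Wherever viability, T/C is given: 100% = DMSO vehicle control viability.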

Row | SMILES | IC50 [1] [nM] | IC50 [2] [nM] | IC50 [3] [nM] | IC50 [4] [nM] | viability, T/C [7] [%] | viability, T/C [8] [%] | viability, T/C [9] [%] | viability, T/C [10] [%] | viability, T/C [11] [%] | viability, T/C [13] [%] | viability, T/C [14] [%] | viability, T/C [15] [%] | viability, T/C [16] [%] | viability, T/C [17] [%] | viability, T/C [19] [%] | viability, T/C [20] [%] | viability, T/C [21] [%] | viability, T/C [22] [%] | viability, T/C [23] [%] | viability, T/C [25] [%] | further results
1 | COc1cc2nccc(Oc3ccc(NC(=O)C4(C(=O)Nc5ccc(F)cc5)CC4)cc3)c2cc1OC | – | – | – | – | – | – | – | – | – | – | – | – | – | – | – | – | – | – | – | – | viability, T/C (compound 0.0316 µM): 102% [middle of 5 runs]; viability, T/C (compound 0.316 µM): 86.7% [middle of 5 runs]; viability, T/C (compound 1 µM): 83.7% [middle of 5 runs]; viability, T/C (compound 3.16 µM): 8.3% [middle of 5 runs]; viability, T/C (compound 10 µM): 7.11% [middle of 5 runs]; IC50 (curve of compound): 1.75 µM [middle of 5 runs]
2 | CC(=O)OC12COC1CC(O)C1(C)C(=O)C(O)C3=C(C)C(OC(=O)C(O)C(NC(=O)OC(C)(C)C)c4ccccc4)CC(O)(C(OC(=O)c4ccccc4)C21)C3(C)C (stereo unspecified) + CC1OCC2(CCN(c3cnc(Sc4ccnc(N)c4Cl)c(N)n3)CC2)C1N | < 10 | < 10 | < 10 | < 10 | 15.2 | 18.4 | 17.1 | 17.3 | 22 | 12 | 13.3 | 12 | 15.8 | 15.9 | 18 | 18.9 | 12.3 | 13 | 21.6 | 10.2 | IC50 [5]: < 10 nM; viability, T/C [6]: 17.9%; viability, T/C [12]: 13.1%; viability, T/C [18]: 17.5%; viability, T/C [24]: 10.3%; viability, T/C [26]: 10.7%; viability, T/C [27]: 6.99%; viability, T/C [28]: 7.72%; viability, T/C [29]: 11.7%; viability, T/C [30]: 7.08%; viability, T/C [31]: 7.25%; viability, T/C [32]: 10%; viability, T/C [33]: 6.28%; viability, T/C [34]: 4.82%; viability, T/C [35]: 10.1%
3 | Cn1nccc1Nc1nccc(-c2cc3c(s2)C(C)(C)N(CCN2CCOCC2)C3=O)n1 + CC1OCC2(CCN(c3cnc(Sc4ccnc(N)c4Cl)c(N)n3)CC2)C1N | > 10000 | > 10000 | > 10000 | > 10000 | 125 | 97.3 | 128 | 95.8 | 104 | 88.8 | 124 | 131 | 104 | 87.4 | 93 | 115 | 106 | 81.9 | 89.2 | 107 | IC50 [5]: 85 nM; viability, T/C [36]: 68.5%; viability, T/C [37]: 77.3%; viability, T/C [38]: 63.3%; viability, T/C [26]: 130%; viability, T/C [27]: 92.3%; viability, T/C [28]: 56.6%; viability, T/C [29]: 59%; viability, T/C [39]: 77%; viability, T/C [31]: 80.4%; viability, T/C [32]: 45%; viability, T/C [33]: 14.4%; viability, T/C [34]: 6.71%; viability, T/C [35]: 12.1%; viability, T/C (second compound 10 µM, first compound 10 µM): 43.9%
4 | COC(=O)c1ccc2c(C(=Nc3ccc(N(C)C(=O)CN4CCN(C)CC4)cc3)c3ccccc3)c(O)[nH]c2c1 + C=CC(=O)N1CCN(c2nc(OCC3CCCN3C)nc3c2CCN(c2cccc4cccc(C)c24)C3)CC1CC#N | 843 | 540 | 500 | 131 | 107 | 84.5 | 96.4 | 42 | 0.21 | 75.4 | 83.7 | 95.8 | 9.82 | 0.13 | 78.8 | 87.2 | 73.9 | 13.7 | 1.46 | 87 | IC50 (curve of first compound, second compound 0.0316 µM): 591 nM; viability, T/C (second compound 0.0316 µM, first compound 0.0316 µM): 78.2%; viability, T/C (second compound 0.0316 µM, first compound 0.1 µM): 94.9%; viability, T/C (second compound 0.0316 µM, first compound 0.316 µM): 75%; viability, T/C (second compound 0.0316 µM, first compound 1 µM): 28.2%; viability, T/C (second compound 0.0316 µM, first compound 3.16 µM): 0.37%; viability, T/C (second compound 0.0316 µM, first compound 10 µM): 0.12%; viability, T/C [36]: 0.13%; viability, T/C [37]: 0.12%; viability, T/C [38]: 0.22%; viability, T/C [26]: 27.7%; viability, T/C [27]: 65.5%; viability, T/C [28]: 10.5%; viability, T/C [29]: 0.29%; viability, T/C [39]: 0.2%
5 | CC1COCCN1c1cc(-c2ccnn2C)c2ccnc(-c3ccn[nH]3)c2n1 (stereo unspecified) + C=CC(=O)N1CCN(c2nc(=O)n(-c3c(C)ccnc3C(C)C)c3nc(-c4c(O)cccc4F)c(F)cc23)C(C)C1 | 308 | > 3160 | 263 | 3160 | 135 | 123 | 41.5 | 56.2 | 47.4 | 142 | 72.9 | 60.3 | 44.9 | 60.4 | 125 | 71 | 41.5 | 51.1 | 41.4 | 146 | IC50 [5]: > 3160 nM; viability, T/C [6]: 110%; viability, T/C [12]: 137%; viability, T/C [18]: 137%; viability, T/C [24]: 106%; viability, T/C [26]: 70.4%; viability, T/C [27]: 70.8%; viability, T/C [28]: 51.2%; viability, T/C [29]: 43%; viability, T/C [30]: 137%; viability, T/C [31]: 108%; viability, T/C [32]: 64.6%; viability, T/C [33]: 75.8%; viability, T/C [34]: 59.1%; viability, T/C [35]: 47.2%
